Assay [1] deals with Mint2 PARM 364-570 (Y524W) (Homo sapiens, UniProt Q99767, Y524W). In words: biochemical.
The target of assay [2] is Mint2 PARMWT 364-570 (Homo sapiens, UniProt Q99767). Kind of assay: biochemical.
The target of assay [3] is Mint2 PTB 364-538 (Homo sapiens, UniProt Q99767, Y524W). In words: biochemical.
The target of assay [4] is T1, Mint2 PTB 364-538 (without the ARM linker) (Homo sapiens, UniProt Q99767, Y524W).
T1 construct: made in house; host or cells: Escherichia coli BL21(DE3)pLysS
T1 sequence (Q99767 364-538 Y524W): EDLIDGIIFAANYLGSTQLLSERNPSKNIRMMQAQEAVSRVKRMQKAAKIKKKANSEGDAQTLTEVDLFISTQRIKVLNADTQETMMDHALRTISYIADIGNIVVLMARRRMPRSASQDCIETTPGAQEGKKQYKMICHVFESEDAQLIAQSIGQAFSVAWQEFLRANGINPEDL
In words: Stopped flow binding kinetics, APP peptides to PTB. As for the experimental part:
(§1) Kinetic binding rate constants were obtained using an upgraded SX17 stopped flow spectrometer (Applied Photophysics), and all experiments were conducted at 25 °C in 500 mM NaCl and 25 mM HEPES (pH 7.4). The relatively high NaCl concentration was used to improve the solubility of the proteins. The change in tryptophan fluorescence was measured using a band-pass filter (excitation at 280 nm and emission at 330 ± 30 nm) when mixing varying concentrations (2–50 μM) of the dansyl peptides with 1 μM protein or 0.5 μM semisynthetic proteins. […] For PTB variants, we used the kobs value from the fast kinetic phase for the analysis. […] We report the errors in kon and koff from the curve fitting. […] For these koff determinations, we report the standard error of the mean of three replicates. Φ values were defined as ΔΔGTS/ΔΔGeq, where ΔΔGTS = RT ln(kon^WT/kon^mut.) and ΔΔGeq = RT ln(Kd^mut./Keq^WT). Calculated coupling free energies were defined as ΔΔΔGEq = RT ln(Kd^mut.:WTKd^WT:mut./Kd^WT:WTKd^mut.:mut.) or ΔΔΔGTS = RT ln(kon^WT:WTkon^mut.:mut./kon^mut.:WTkon^WT:mut.) as previously described.[27] Propagated errors are reported.

The target in assay [5] is T2, Mint2 PARM 364-570 (Y524W, Y543A) (Homo sapiens, UniProt Q99767, Y524W/Y543A).
T2 sequence (Q99767 364-570 Y524W/Y543A): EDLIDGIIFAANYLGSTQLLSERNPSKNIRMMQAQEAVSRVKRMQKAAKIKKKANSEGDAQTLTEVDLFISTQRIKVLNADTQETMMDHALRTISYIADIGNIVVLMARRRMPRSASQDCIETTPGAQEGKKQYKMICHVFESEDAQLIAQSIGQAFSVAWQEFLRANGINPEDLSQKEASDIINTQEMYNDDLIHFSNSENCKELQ
In words: Stopped flow binding kinetics, APP peptides to PARM^Y543A. Details: made in house; host or cells: Escherichia coli BL21(DE3)pLysS. As for the experimental part:
as §1

Assay [6] has as its target T2, Mint2 PARM 364-570 (Y524W, Y543A). Kind of assay: biochemical.
Assay [7] addresses T3, Mint2 PARM 364-570 (Y524W), pWT PARM (PTB domain and ARM linker) (Homo sapiens, UniProt Q99767, Y524W).
T3 construct: made in house; host or cells: Escherichia coli BL21(DE3)pLysS
T3 sequence (Q99767 364-570 Y524W): T2 sequence (Q99767 364-570 Y524W/Y543A) with A180Y
In words: Stopped flow binding kinetics, APP peptides to PARM (pseudo-wild type). The procedure:
as §1

Assay [8] addresses T4, Mint2 PARM 364-570 (Y524W, Y543E) (Homo sapiens, UniProt Q99767, Y524W/Y543E).
T4 sequence (Q99767 364-570 Y524W/Y543E): T2 sequence (Q99767 364-570 Y524W/Y543A) with A180E
Kind of assay: biochemical.

Assay [9] concerns the target T4, Mint2 PARM 364-570 (Y524W, Y543E). Kind of assay: Stopped flow binding kinetics, APP peptides to PARM^Y543E. The arrangement: made in house; host or cells: Escherichia coli BL21(DE3)pLysS. The procedure:
as §1

For assay [10], the target named is PARM, pseudo-wild type (human Mint2 364-570, Y524W) (human, UniProt Q99767 364-570, Y524W). In words: fluorescence polarisation. The note with it: both partners purified.
For assay [11], the target named is PARM^WT (human Mint2 PTB domain with ARM linker, residues 364-570, no Y524W) (human, UniProt Q99767 364-570). In words: fluorescence polarisation. The note with it: both partners purified.
Assay [12] has as its target PARM^Y543E (human Mint2 364-570, Y524W, Y543E) (human, UniProt Q99767 364-570, Y524W | Y543E). In words: fluorescence polarisation. The note with it: both partners purified.
The target in assay [13] is PARM^Y543A (human Mint2 364-570, Y524W, Y543A) (human, UniProt Q99767 364-570, Y524W | Y543A). Kind of assay: fluorescence polarisation. The settings on record: both partners purified.
In assay [14] the target is PTB (human Mint2 PTB domain without the ARM linker, residues 364-538, Y524W) (human, UniProt Q99767 364-538, Y524W). Kind of assay: fluorescence polarisation. The settings on record: both partners purified.
The target of assay [15] is PARM^Y543A (human, UniProt Q99767 364-570, Y524W | Y543A). In words: stopped-flow fluorescence kinetics. The settings on record: both partners purified.
The target of assay [16] is PARM^Y543E (human, UniProt Q99767 364-570, Y524W | Y543E). In words: stopped-flow fluorescence kinetics. The settings on record: both partners purified.
Assay [17] concerns the target PTB without the ARM linker (Mint2 residues 364-538) (human, UniProt Q99767 364-538, Y524W). Kind of assay: stopped-flow fluorescence kinetics. The settings on record: both partners purified.
The target in assay [18] is T5, pseudo-wild type (pWT) PARM domain of Mint2 (residues 364-570, Y524W) (human, UniProt Q99767 364-570, Y524W). Kind of assay: stopped-flow fluorescence kinetics. The note with it: both partners purified.
Assay [19] addresses T6, PARM^WT (Mint2 residues 364-570) (human, UniProt Q99767 364-570). In words: stopped-flow fluorescence kinetics. The settings on record: both partners purified.
The target of assay [20] is T5, pseudo-wild type (pWT) PARM domain of …. In words: fluorescence polarisation. The note with it: both partners purified.
Assay [21] has as its target T6, PARM^WT (Mint2 residues 364-570). Kind of assay: fluorescence polarisation. The settings on record: both partners purified.

Residue numbers refer to the chain shown, from its start. Where no end group is shown, it is not given here. The star is where a group is joined. Dansyl = CN(C)c1cccc2c(S(=O)(=O)*)cccc12; TAMRA = carboxytetramethylrhodamine

Chain of Mint2 PARM 364-570 (Y524W) (Q99767 364-570 Y524W): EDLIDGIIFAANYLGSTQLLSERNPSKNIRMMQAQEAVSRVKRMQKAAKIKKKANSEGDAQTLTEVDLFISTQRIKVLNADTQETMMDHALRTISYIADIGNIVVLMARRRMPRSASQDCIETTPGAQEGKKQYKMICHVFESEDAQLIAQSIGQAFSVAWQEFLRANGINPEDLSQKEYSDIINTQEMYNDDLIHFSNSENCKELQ
Chain of PARM^Y543E (human Mint2 364-570, Y524W, Y543E) (Q99767 364-570 Y524W/Y543E): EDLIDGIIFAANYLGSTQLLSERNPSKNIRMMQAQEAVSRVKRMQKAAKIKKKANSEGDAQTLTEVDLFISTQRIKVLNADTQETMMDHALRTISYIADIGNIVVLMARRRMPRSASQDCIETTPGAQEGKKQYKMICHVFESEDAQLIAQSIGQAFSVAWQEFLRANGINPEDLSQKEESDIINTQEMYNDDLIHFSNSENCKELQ

`C[C@H](NC(=O)[C@H](CC(N)=O)NC(=O)[C@H](CCC(=O)O)NC(=O)[C@H](Cc1ccc(O)cc1)NC(=O)CNC(=O)[C@H](CC(N)=O)NC(=O)CNC(=O)[C@H](CC(N)=O)NC(=O)[C@H](CC(N)=O)NS(=O)(=O)c1cccc2c(N(C)C)cccc12)C(=O)N[C@H](C(=O)N[C@@H](Cc1ccc(O)cc1)C(=O)N[C@@H](CCCCN)C(=O)N[C@@H](Cc1ccccc1)C(=O)N[C@@H](Cc1ccccc1)C(=O)N[C@@H](CCC(=O)O)C(=O)O)[C@@H](C)O` [Peptide P760A]: the Ki in assay [1] came to 40000 ± 800 nM.

For `C[C@@H](O)[C@H](NC(=O)[C@@H]1CCCN1C(=O)[C@H](CC(N)=O)NC(=O)[C@H](CCC(=O)O)NC(=O)[C@H](Cc1ccc(O)cc1)NC(=O)CNC(=O)[C@H](CC(N)=O)NC(=O)CNC(=O)[C@H](CC(N)=O)NC(=O)[C@H](CC(N)=O)NS(=O)(=O)c1cccc2c(N(C)C)cccc12)C(=O)N[C@@H](Cc1ccc(O)cc1)C(=O)N[C@@H](CCCCN)C(=O)N[C@@H](Cc1ccccc1)C(=O)N[C@@H](Cc1cccc2ccccc12)C(=O)N[C@@H](CCC(=O)O)C(=O)O` [Peptide F765Nal1], the inhibition constant (Ki) in assay [2] is 2600 nM; in [3], 560 nM; in assay [6], 1000 nM; in assay [8], 1100 nM. For the same molecule, the Kd is 120 nM in [4], 500 nM in [5] and 1500 nM in assay [7].

As for `C[C@@H](O)[C@H](NC(=O)[C@@H]1CCCN1C(=O)[C@H](CC(N)=O)NC(=O)[C@H](CCC(=O)O)NC(=O)[C@H](Cc1ccc(O)cc1)NC(=O)CNC(=O)[C@H](CC(N)=O)NC(=O)CNC(=O)[C@H](CC(N)=O)NC(=O)[C@H](CC(N)=O)NS(=O)(=O)c1cccc2c(N(C)C)cccc12)C(=O)N[C@@H](Cc1ccc(O)cc1)C(=O)N[C@@H](CCCCN)C(=O)N[C@@H](Cc1cccc2ccccc12)C(=O)N[C@@H](Cc1ccccc1)C(=O)N[C@@H](CCC(=O)O)C(=O)O` [Peptide F764Nal1], the inhibition constant Ki is 1300 nM in [2]; 290 nM in assay [3]; 500 nM in [1]; 500 nM in assay [6]; 470 ± 30 nM in assay [8]. Also, the Kd is 70 nM in assay [4], 490 nM in [5], 1100 nM in [7] and 430 nM in assay [9]. In addition, the off-rate constant (koff) in assay [4] was 2.3 s⁻¹; in assay [5], 1.3 s⁻¹; in assay [7] (stopped flow, same buffer, 25 °C, from fit of kobs vs peptide concentration, or displacement with 50–150 µM APP^WT when not well-defined), 1.3 s⁻¹; in [9], 1.2 s⁻¹. Further, the association rate constant (kon) is 3.1e+07 ± 1e+06 M⁻¹ s⁻¹ in assay [4] (pH 7.4), 2.5e+06 M⁻¹ s⁻¹ in [5] (pH 7.4), 1.2e+06 M⁻¹ s⁻¹ in assay [7] (pH 7.4) and 2.9e+06 M⁻¹ s⁻¹ in assay [9] (pH 7.4).

In assay [3], `C[C@H](NC(=O)[C@H](Cc1ccc(O)cc1)NC(=O)[C@@H](NC(=O)[C@@H]1CCCN1C(=O)[C@H](CC(N)=O)NC(=O)[C@H](CCC(=O)O)NC(=O)[C@H](Cc1ccc(O)cc1)NC(=O)CNC(=O)[C@H](CC(N)=O)NC(=O)CNC(=O)[C@H](CC(N)=O)NC(=O)[C@H](CC(N)=O)NS(=O)(=O)c1cccc2c(N(C)C)cccc12)[C@@H](C)O)C(=O)N[C@@H](Cc1ccccc1)C(=O)N[C@@H](Cc1ccccc1)C(=O)N[C@@H](CCC(=O)O)C(=O)O` [Peptide K763A] showed a Ki of 800 nM.

On to NGYENPTYKFFE [APP^WT 12-mer (NGYENPTYKFFE), unlabelled], for which the inhibitory constant (Ki) came out at 3500 nM in assay [10]; 3200 nM in assay [11]; 1100 nM in assay [12]; 1100 nM in assay [13]; 740 nM in assay [14].

Regarding Dansyl-NGYENPTYKFFE [dansyl-APP^WT], the “fold increase in kon against PARM” value in [15] and in assay [16] was 2.5 fold in each case. In addition, the koff in assay [15] is approximately 2 s⁻¹; in assay [16] it was approximately 2 s⁻¹; in assay [17], approximately 2 s⁻¹; in assay [18], 2.3 ± 0.08 s⁻¹; in assay [19], 1.2 ± 0.05 s⁻¹. Further, the association rate constant (kon) was 1.1e+07 M⁻¹ s⁻¹ in assay [17], 390000 ± 4000 M⁻¹ s⁻¹ in assay [18] and 380000 ± 3000 M⁻¹ s⁻¹ in assay [19]. In [17], the “ratio of Kd values for PARM and PTB” value was 0.057.

Turning to {TAMRA}-NNGNGYENPTYKFFE [(TAMRA)-NNG-NGYENPTYKFFE], the binding result in [20] and in assay [21] was “binds” in each case.

The values are drawn from PMC8291497 (ACS Chemical Biology, 2021).
